Holding throughout (type): in vivo
Assay [1] relates to Poa annua. Put plainly: Herbicidal pre-emergence action (Method B) against POAAN. To be noted: 504 h, scored visually after about 3 weeks vs untreated controls. From the text: (§1) Method B: Herbicidal Pre-Emergence Action Seeds of mono- and dicotyledonous weed plants are placed in plastic pots in sandy loam soil (doubly sown with one species each of mono- or dicotyledonous weed plants per pot) and covered with soil. The compounds of the invention, formulated in the form of wettable powders (WP) or as emulsion concentrates (EC), are then applied onto the surface of the covering soil as aqueous suspension or emulsion with addition of 0.5% additive at a water application rate equivalent to 600 liters per hectare. After the treatment, the pots are placed in a greenhouse and kept under good growth conditions for the trial plants. After about 3 weeks, the effect of the preparations is scored visually in comparison with untreated controls as percentages. For example, 100% action=the plants have died, 0% action=like control plants.

A further assay concerns Abutilon theophrast. Put plainly: Herbicidal post-emergence action (Method A) against ABUTH. To be noted: rated visually after about 3 weeks vs untreated controls. The protocol: (§2) Method A: Herbicidal Post-Emergence Action Seeds of mono- and dicotyledonous weed plants are placed in plastic pots in sandy loam soil (twin sowing with one species each of mono- or dicotyledonous weed plants per pot), covered with soil and cultivated in a greenhouse under controlled growth conditions. 2 to 3 weeks after sowing, the test plants are treated at the one-leaf stage. The compounds of the invention, formulated in the form of wettable powders (WP) or as emulsion concentrates (EC), are applied to the green parts of the plants as aqueous suspension or emulsion with addition of 0.5% additive at a water application rate equivalent to 600 liters per hectare. After the test plants have been kept in the greenhouse under optimum growth conditions for about 3 weeks, the activity of the preparations is rated visually in comparison to untreated controls. For example, 100% activity=the plants have died, 0% activity=like control plants.

Assay [2] has as its system Poa annua. Put plainly: Herbicidal post-emergence action (Method A) against POAAN. To be noted: 504 h, rated visually after about 3 weeks vs untreated controls. The protocol: as §2
Assay [3] deals with Matricaria inodora. Put plainly: Herbicidal post-emergence action (Method A) against MATIN. To be noted: 1280 g/ha; rated visually after about 3 weeks vs untreated controls. The protocol: as §2
In assay [4] the test system is Matricaria inodora. Put plainly: Herbicidal pre-emergence action (Method B) against MATIN. As to conditions: Tripleurospermum inodorum, 504 h, 1280 g/ha, scored visually after about 3 weeks vs untreated controls.
Description: as §1

The subject of the next assay is harmful plants. Put plainly: Herbicidal post-emergence action (Method A), summary statement. To be noted: summary of tables A1-A11. The protocol: as §2
Assay [5] has as its system Lolium rigidum. Put plainly: Herbicidal post-emergence action (Method A) against LOLRI. As to conditions: Lolium rigidum, post-emergence, 504 h; 1280 g/ha; rated visually after about 3 weeks vs untreated controls. The protocol:
as §2

Assay [6] relates to Lolium rigidum. Put plainly: Herbicidal pre-emergence action (Method B) against LOLRI. To be noted: 504 h, scored visually after about 3 weeks vs untreated controls.
Description: as §1

Assay [7] has as its system Stellaria media. Put plainly: Herbicidal post-emergence action (Method A) against STEME. As to conditions: 504 h, rated visually after about 3 weeks vs untreated controls. The protocol:
as §2

Assay [8] relates to Stellaria media. Put plainly: Herbicidal pre-emergence action (Method B) against STEME. As to conditions: 504 h.
Description: as §1

In assay [9] the test system is Echinochloa crus-galli. Put plainly: Herbicidal post-emergence action (Method A) against ECHCG. To be noted: rated visually after about 3 weeks vs untreated controls. The protocol: as §2
Assay [10] concerns Echinochloa crus-galli. Put plainly: Herbicidal pre-emergence action (Method B) against ECHCG. To be noted: 504 h, 1280 g/ha, scored visually after about 3 weeks vs untreated controls.
Description: as §1

Consider `O=CNNC(=O)c1nc(C2CC2)ncc1-c1ccccc1Cl` [Example I-516, 5-(2-chlorophenyl)-2-cyclopropyl-N′-formylpyrimidine-4-carbohydrazide], for which the pest or weed control at 320 g/ha in the assay on Poa annua [1] (320 g/ha) turned out to be 100%; with Poa annua [2] (320 g/ha, read-out: Post-emergence action at 320 g/ha against POANN), 100%; with Lolium rigidum [6] (320 g/ha), 100%; in the assay with Stellaria media [7] (320 g/ha), 90%; with Stellaria media [8] (dosage 320 g/ha), 100%. Moreover, the pest or weed control at 1280 g/ha amounted to 100% in the assay with Poa annua [1] (1280 g/ha); 100% with Poa annua [2] (1280 g/ha, read-out: Post-emergence action at 1280 g/ha against POANN); 100% in the assay with Matricaria inodora [4]; 90% in the assay on Lolium rigidum [5]; 100% in the assay with Lolium rigidum [6] (1280 g/ha); 100% with Stellaria media [7] (1280 g/ha). Besides, the pest or weed control at 1280 g/ha came to 100% in the assay with Stellaria media [8] (dosage 1280 g/ha); 100% in the assay on Echinochloa crus-galli [9] (Echinochloa crus-galli, post-emergence, 504 h, 1280 g/ha); 100% in the assay with Echinochloa crus-galli [10]. Moreover, the “Post-emergence action at 1280 g/ha against ABUTH” value in the assay on Abutilon theophrast is listed as 100%. In addition, the “Post-emergence action at 1280 g/ha against MATIN” value with Matricaria inodora [3] amounted to 90%. Further, the “herbicidal efficacy against harmful plants in the case of post-emergence treatment” value with harmful plants was “good herbicidal efficacy”. In addition, the “Post-emergence action at 320 g/ha against ECHCG” value in the assay on Echinochloa crus-galli [9] (320 g/ha) came out at 90%.
